Source: paper PMC3270411 (Chemistry & biology, 2012)

Columns and labels:
Assay in all cases: KiNativ cellular kinase profiling
Format in all cases: cell-based
ITPK1 = biological target: T1, ITPK1 (Homo sapiens, UniProt Q13572); details: for inhibition at 1 µM: A-375, read-out: Percent inhibition of kinase labeling by ATP-biotin; for Percent inhibition of kinase labeling by ATP-biotin: A375 cells, 1 μM, 3 hours, ITPK1, labeling site ATP
T1 sequence (Q13572 1-414): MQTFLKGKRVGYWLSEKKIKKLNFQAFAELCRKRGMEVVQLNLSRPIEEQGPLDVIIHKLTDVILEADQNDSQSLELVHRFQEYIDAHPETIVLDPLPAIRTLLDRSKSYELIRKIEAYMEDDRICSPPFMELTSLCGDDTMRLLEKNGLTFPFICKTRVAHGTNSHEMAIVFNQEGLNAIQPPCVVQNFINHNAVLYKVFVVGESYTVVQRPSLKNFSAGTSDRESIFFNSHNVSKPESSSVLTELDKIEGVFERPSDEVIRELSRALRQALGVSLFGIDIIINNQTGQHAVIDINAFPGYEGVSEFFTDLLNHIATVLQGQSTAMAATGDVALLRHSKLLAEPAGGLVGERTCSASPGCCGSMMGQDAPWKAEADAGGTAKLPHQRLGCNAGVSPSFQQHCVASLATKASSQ

PKD1 = biological target: T2, PKD1 (Homo sapiens, UniProt Q15139); details: for inhibition at 1 µM: A-375, read-out: Percent inhibition of kinase labeling by ATP-biotin; for Percent inhibition of kinase labeling by ATP-biotin: A375 cells, 1 μM, 3 hours, PKD1, labeling site Lys1
T2 sequence (Q15139 1-912): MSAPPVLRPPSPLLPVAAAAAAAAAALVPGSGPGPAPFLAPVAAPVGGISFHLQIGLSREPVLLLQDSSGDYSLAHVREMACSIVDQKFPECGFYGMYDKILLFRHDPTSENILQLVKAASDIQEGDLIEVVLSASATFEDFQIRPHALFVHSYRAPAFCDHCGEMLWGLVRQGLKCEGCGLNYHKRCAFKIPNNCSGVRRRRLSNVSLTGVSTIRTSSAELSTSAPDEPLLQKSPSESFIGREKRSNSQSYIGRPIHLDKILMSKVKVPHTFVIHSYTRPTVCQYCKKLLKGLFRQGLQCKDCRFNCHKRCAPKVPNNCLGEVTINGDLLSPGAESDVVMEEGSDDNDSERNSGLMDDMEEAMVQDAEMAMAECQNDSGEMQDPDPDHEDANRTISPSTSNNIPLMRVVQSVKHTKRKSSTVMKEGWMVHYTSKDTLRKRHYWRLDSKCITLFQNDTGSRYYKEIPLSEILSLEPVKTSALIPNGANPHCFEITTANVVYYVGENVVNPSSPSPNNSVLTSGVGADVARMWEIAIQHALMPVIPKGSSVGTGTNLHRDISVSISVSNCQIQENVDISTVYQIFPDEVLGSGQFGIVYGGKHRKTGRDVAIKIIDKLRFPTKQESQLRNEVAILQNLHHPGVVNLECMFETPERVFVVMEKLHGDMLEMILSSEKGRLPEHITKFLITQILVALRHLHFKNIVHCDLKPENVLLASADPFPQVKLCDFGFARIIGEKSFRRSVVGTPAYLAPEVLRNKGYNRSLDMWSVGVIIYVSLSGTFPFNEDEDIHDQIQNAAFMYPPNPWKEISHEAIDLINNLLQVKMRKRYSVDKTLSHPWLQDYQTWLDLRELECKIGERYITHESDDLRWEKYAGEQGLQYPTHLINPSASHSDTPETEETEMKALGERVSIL

AurA = biological target: T3, AurA (Homo sapiens, UniProt O14965); details: for inhibition at 1 µM: A-375, read-out: Percent inhibition of kinase labeling by ATP-biotin; for Percent inhibition of kinase labeling by ATP-biotin: A375 cells, 1 μM, 3 hours, AurA, labeling site Lys2
T3 sequence (O14965 1-403): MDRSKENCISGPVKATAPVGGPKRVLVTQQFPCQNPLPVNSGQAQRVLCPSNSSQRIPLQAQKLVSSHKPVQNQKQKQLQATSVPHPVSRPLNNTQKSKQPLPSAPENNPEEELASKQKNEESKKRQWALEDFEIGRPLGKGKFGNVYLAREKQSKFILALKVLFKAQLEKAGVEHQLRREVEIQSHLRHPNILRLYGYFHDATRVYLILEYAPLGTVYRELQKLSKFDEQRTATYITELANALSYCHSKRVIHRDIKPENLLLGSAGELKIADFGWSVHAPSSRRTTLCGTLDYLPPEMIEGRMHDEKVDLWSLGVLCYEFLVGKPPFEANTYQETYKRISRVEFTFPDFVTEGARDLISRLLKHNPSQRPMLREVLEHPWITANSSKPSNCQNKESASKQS

TAO2 = biological target: T4, TAO2 (Homo sapiens, UniProt Q9UL54); details: for inhibition at 1 µM: A-375, read-out: Percent inhibition of kinase labeling by ATP-biotin; for Percent inhibition of kinase labeling by ATP-biotin: A375 cells, 1 μM, 3 hours, TAO2, labeling site Lys2
T4 sequence (Q9UL54 1-1235): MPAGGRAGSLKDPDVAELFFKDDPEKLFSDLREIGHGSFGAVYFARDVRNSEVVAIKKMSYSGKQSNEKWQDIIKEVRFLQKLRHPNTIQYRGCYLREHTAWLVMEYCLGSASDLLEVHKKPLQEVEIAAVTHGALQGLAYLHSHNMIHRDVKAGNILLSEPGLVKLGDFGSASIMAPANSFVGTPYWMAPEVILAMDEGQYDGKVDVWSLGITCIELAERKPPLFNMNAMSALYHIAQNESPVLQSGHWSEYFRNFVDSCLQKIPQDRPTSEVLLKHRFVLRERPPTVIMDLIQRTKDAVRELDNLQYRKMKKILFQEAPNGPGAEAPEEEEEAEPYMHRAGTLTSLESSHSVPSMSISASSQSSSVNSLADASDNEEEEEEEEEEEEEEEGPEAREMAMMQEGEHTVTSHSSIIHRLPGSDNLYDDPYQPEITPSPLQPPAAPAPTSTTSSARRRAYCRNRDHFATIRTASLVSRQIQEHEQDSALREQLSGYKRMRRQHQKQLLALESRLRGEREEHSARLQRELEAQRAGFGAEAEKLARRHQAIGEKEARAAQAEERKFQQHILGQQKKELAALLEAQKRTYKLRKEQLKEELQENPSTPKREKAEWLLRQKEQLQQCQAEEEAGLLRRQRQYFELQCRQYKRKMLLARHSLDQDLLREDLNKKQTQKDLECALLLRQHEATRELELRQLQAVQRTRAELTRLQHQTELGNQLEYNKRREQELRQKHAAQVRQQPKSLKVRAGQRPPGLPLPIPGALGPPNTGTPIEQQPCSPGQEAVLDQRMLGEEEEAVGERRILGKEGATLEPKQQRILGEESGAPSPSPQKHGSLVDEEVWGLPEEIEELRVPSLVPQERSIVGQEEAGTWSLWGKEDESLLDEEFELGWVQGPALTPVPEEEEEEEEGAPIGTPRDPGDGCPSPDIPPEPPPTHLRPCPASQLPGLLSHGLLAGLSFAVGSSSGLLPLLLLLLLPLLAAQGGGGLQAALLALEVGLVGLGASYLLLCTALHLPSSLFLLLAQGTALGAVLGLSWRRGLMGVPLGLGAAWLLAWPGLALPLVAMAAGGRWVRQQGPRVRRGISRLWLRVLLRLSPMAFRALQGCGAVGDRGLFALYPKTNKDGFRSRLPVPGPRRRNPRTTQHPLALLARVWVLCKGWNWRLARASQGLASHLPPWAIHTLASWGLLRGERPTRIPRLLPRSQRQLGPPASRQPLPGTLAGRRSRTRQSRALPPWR

RAF1 = RAF1 (Homo sapiens, UniProt P04049); details: for inhibition at 1 µM: A-375, read-out: Percent inhibition of kinase labeling by ATP-biotin; for Percent inhibition of kinase labeling by ATP-biotin: A375 cells, 1 μM, 3 hours, RAF1, labeling site Lys2
Sequence of RAF1 (P04049 whole entry): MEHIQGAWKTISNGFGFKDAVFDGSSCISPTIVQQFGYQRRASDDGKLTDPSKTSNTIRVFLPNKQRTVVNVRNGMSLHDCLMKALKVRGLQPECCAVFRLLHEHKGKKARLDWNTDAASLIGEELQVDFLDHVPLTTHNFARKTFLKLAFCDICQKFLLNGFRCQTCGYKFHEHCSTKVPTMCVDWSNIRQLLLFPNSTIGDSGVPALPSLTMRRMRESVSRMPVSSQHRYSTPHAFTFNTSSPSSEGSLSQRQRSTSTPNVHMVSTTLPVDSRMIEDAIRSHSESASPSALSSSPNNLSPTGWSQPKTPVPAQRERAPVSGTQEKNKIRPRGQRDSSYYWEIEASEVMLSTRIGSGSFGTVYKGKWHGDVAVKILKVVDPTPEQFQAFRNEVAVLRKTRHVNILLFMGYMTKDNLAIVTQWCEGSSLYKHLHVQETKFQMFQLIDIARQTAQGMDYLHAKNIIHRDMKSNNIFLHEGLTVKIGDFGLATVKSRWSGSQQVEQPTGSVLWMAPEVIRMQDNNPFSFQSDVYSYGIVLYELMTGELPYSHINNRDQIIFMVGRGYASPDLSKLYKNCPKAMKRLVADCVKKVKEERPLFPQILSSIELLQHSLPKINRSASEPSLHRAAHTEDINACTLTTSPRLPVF

Cc1cc(NC(=O)c2cccc(NC(=O)/C=C/CN(C)C)c2)ccc1Nc1nccc(-c2cccnc2)n1 [JNK-IN-8]
inhibition at 1 µM (ITPK1): 24.6%
inhibition at 1 µM (PKD1): 8.6%
inhibition at 1 µM (AurA): -8%
inhibition at 1 µM (TAO2): -21.6%
inhibition at 1 µM (RAF1): -41.4%

CN(C)C/C=C/C(=O)Nc1cccc(C(=O)Nc2ccc(Nc3nccc(-c4c(-c5ccccc5)nn5ccccc45)n3)cc2)c1 [JNK-IN-11]
inhibition at 1 µM (ITPK1): -0.7%
inhibition at 1 µM (PKD1): 29.4%
inhibition at 1 µM (AurA): 68.2%
inhibition at 1 µM (TAO2): 42.6%
inhibition at 1 µM (RAF1): 25.5%

CN(C)C/C=C/C(=O)Nc1cccc(C(=O)Nc2ccc(Nc3nccc(-c4cccnc4)n3)cc2)c1 [JNK-IN-7]
inhibition at 1 µM (ITPK1): -0.2%
inhibition at 1 µM (PKD1): 2%
inhibition at 1 µM (AurA): 20.9%
inhibition at 1 µM (TAO2): -3.7%
inhibition at 1 µM (RAF1): -7.3%

CN(C)C/C=C/C(=O)Nc1cccc(C(=O)Nc2ccc(Nc3nccc(/C(C#N)=C4\Nc5ccccc5S4)n3)cc2)c1 [JNK-IN-12]
Percent inhibition of kinase labeling by ATP-biotin (ITPK1): 8.6%
Percent inhibition of kinase labeling by ATP-biotin (PKD1): −21.6%
Percent inhibition of kinase labeling by ATP-biotin (AurA): −23%
Percent inhibition of kinase labeling by ATP-biotin (TAO2): −13%
Percent inhibition of kinase labeling by ATP-biotin (RAF1): 8.6%

CCC(=O)Nc1cccc(C(=O)Nc2ccc(Nc3nccc(-c4cccnc4)n3)cc2)c1 [JNK-IN-6]
Percent inhibition of kinase labeling by ATP-biotin (ITPK1): 27%
Percent inhibition of kinase labeling by ATP-biotin (PKD1): 28.7%
Percent inhibition of kinase labeling by ATP-biotin (AurA): 9.9%
Percent inhibition of kinase labeling by ATP-biotin (TAO2): 22.5%
Percent inhibition of kinase labeling by ATP-biotin (RAF1): −20.2%
